From PubChem BioAssay (NCI)
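Five concentrations, 48 hours, 96-well plates. GI50 = concentration required for 50% inhibition of growth. TGI marks complete inhibition of growth.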

Experiments:
Test in all cases: NCI-60 cell line screen, 48 h; in the data active means GI50 below about 0.43 µM; inactive means the rest
RPMI-8226 leukemia = tested on: RPMI-8226 leukemia
A549 NSCLC = tested on: A549 NSCLC
SW-620 colon = tested on: SW-620 colon
SF-268 CNS = tested on: SF-268 CNS
BT-549 breast = tested on: BT-549 breast
HCT-15 colon = tested on: HCT-15 colon
KM12 colon = tested on: KM12 colon
HCT-116 colon = tested on: HCT-116 colon
SK-OV-3 ovarian = tested on: SK-OV-3 ovarian
HL-60(TB) leukemia = tested on: HL-60(TB) leukemia
HT29 colon = tested on: HT29 colon
HCC-2998 colon = tested on: HCC-2998 colon
PC-3 prostate = tested on: PC-3 prostate
TK-10 renal = tested on: TK-10 renal
NCI-H460 lung = tested on: NCI-H460 lung
SR leukemia = tested on: SR leukemia
UO-31 renal = tested on: UO-31 renal
OVCAR-8 ovarian = tested on: OVCAR-8 ovarian
HOP-92 NSCLC = tested on: HOP-92 NSCLC
SNB-19 CNS = tested on: SNB-19 CNS
NCI/ADR-RES ovarian = tested on: NCI/ADR-RES ovarian
IGROV1 ovarian = tested on: IGROV1 ovarian
EKVX NSCLC = tested on: EKVX NSCLC
MOLT-4 leukemia = tested on: MOLT-4 leukemia
OVCAR-5 ovarian = tested on: OVCAR-5 ovarian
MCF7 breast = tested on: MCF7 breast
NCI-H522 lung = tested on: NCI-H522 lung
SN12C renal = tested on: SN12C renal
UACC-62 melanoma = tested on: UACC-62 melanoma
SK-MEL-28 melanoma = tested on: SK-MEL-28 melanoma
SF-539 CNS = tested on: SF-539 CNS
T-47D breast = tested on: T-47D breast
HOP-62 NSCLC = tested on: HOP-62 NSCLC
NCI-H226 lung = tested on: NCI-H226 lung
A498 renal = tested on: A498 renal
M14 melanoma = tested on: M14 melanoma
UACC-257 melanoma = tested on: UACC-257 melanoma
ACHN renal = tested on: ACHN renal
CCRF-CEM leukemia = tested on: CCRF-CEM leukemia
MALME-3M melanoma = tested on: MALME-3M melanoma
COLO 205 colon = tested on: COLO 205 colon
SK-MEL-2 melanoma = tested on: SK-MEL-2 melanoma
DU-145 prostate = tested on: DU-145 prostate
RXF 393 renal = tested on: RXF 393 renal
OVCAR-4 ovarian = tested on: OVCAR-4 ovarian
OVCAR-3 ovarian = tested on: OVCAR-3 ovarian
MDA-MB-231 breast = tested on: MDA-MB-231 breast

Cc1cc(O)c(=O)cc2c1C[C@H]1CC(C)(C)/C=C/C[C@]3(C)Oc4cc(=O)c(O)cc(C)c4C[C@H]3C[C@H](O)[C@@]1(C)O2
53.2 nM: TGI (UO-31 renal)
80.9 nM: TGI (A498 renal)
95.2 nM: TGI (SK-OV-3 ovarian)
active: GI50 (RPMI-8226 leukemia) 8.31 nM | GI50 (A549 NSCLC) 6.97 nM | GI50 (SW-620 colon) 2.91 nM | GI50 (SF-268 CNS) 7.71 nM | GI50 (BT-549 breast) 12.5 nM | GI50 (HCT-15 colon) 2.81 nM | GI50 (KM12 colon) 7.17 nM | GI50 (HCT-116 colon) < 1.67 nM | GI50 (SK-OV-3 ovarian) 10.1 nM | GI50 (HL-60(TB) leukemia) 20.2 nM | GI50 (HT29 colon) 3.1 nM | GI50 (HCC-2998 colon) 20.3 nM | GI50 (PC-3 prostate) 5.38 nM | GI50 (TK-10 renal) 8.98 nM | GI50 (NCI-H460 lung) < 1.67 nM | GI50 (SR leukemia) 14.9 nM | GI50 (UO-31 renal) 7.73 nM | GI50 (OVCAR-8 ovarian) 6.1 nM | GI50 (HOP-92 NSCLC) 5.54 nM | GI50 (SNB-19 CNS) < 1.67 nM | GI50 (NCI/ADR-RES ovarian) 8.45 nM | GI50 (IGROV1 ovarian) 16.3 nM | GI50 (EKVX NSCLC) 11 nM | GI50 (MOLT-4 leukemia) 7.93 nM | GI50 (OVCAR-5 ovarian) 13.6 nM | GI50 (MCF7 breast) 3.81 nM | GI50 (NCI-H522 lung) 7.68 nM | GI50 (SN12C renal) 5.11 nM | GI50 (UACC-62 melanoma) 27.2 nM | GI50 (SK-MEL-28 melanoma) 15.6 nM | GI50 (SF-539 CNS) 10.4 nM | GI50 (T-47D breast) 2.52 nM | GI50 (HOP-62 NSCLC) 5.72 nM | GI50 (NCI-H226 lung) 24 nM | GI50 (A498 renal) 25.9 nM | GI50 (M14 melanoma) 11.7 nM | GI50 (UACC-257 melanoma) 13.5 nM | GI50 (ACHN renal) 6.01 nM | GI50 (CCRF-CEM leukemia) 10.1 nM | GI50 (MALME-3M melanoma) 6.36 nM | GI50 (COLO 205 colon) 5.71 nM | GI50 (SK-MEL-2 melanoma) 8.83 nM | GI50 (DU-145 prostate) 5.61 nM | GI50 (RXF 393 renal) 10.5 nM | GI50 (OVCAR-4 ovarian) 12 nM | GI50 (OVCAR-3 ovarian) 12 nM | GI50 (MDA-MB-231 breast) 19.9 nM
25.8 nM: TGI (COLO 205 colon)
85.4 nM: TGI (UACC-62 melanoma)
32 nM: TGI (MALME-3M melanoma)
> 16700 nM: TGI (RPMI-8226 leukemia) | TGI (A549 NSCLC) | TGI (SW-620 colon) | TGI (SF-268 CNS) | TGI (BT-549 breast) | TGI (HCT-15 colon) | TGI (KM12 colon) | TGI (HCT-116 colon) | TGI (HT29 colon) | TGI (HCC-2998 colon) | TGI (PC-3 prostate) | TGI (SR leukemia) | TGI (OVCAR-8 ovarian) | TGI (SNB-19 CNS) | TGI (IGROV1 ovarian) | TGI (MOLT-4 leukemia) | TGI (OVCAR-5 ovarian) | TGI (MCF7 breast) | TGI (SK-MEL-28 melanoma) | TGI (CCRF-CEM leukemia) | TGI (DU-145 prostate) | TGI (OVCAR-4 ovarian) | TGI (OVCAR-3 ovarian) | TGI (MDA-MB-231 breast)
71.4 nM: TGI (SF-539 CNS)
140 nM: TGI (M14 melanoma)
142 nM: TGI (RXF 393 renal)
128 nM: TGI (HL-60(TB) leukemia)
496 nM: TGI (SK-MEL-2 melanoma)
51.7 nM: TGI (NCI-H522 lung)
40.1 nM: TGI (HOP-62 NSCLC)
50.4 nM: TGI (ACHN renal)
> 4910 nM: TGI (SN12C renal)
16.3 nM: TGI (T-47D breast)
17.3 nM: TGI (NCI-H460 lung)
112 nM: TGI (HOP-92 NSCLC)
84.1 nM: TGI (UACC-257 melanoma)
